Results taken from patent publication US8367843B2, “Phenol derivative” (Fuji Yakuhin Co., Ltd., priority 2009, dated 2013).

Columns and labels:
Assay type in all cases: in vivo
[1] = test system: male Wistar/ST rats (pyrazinamide model); experiment: Uricosuric action in rat pyrazinamide model; conditions: urinary uric acid/creatinine ratio as percentage to control, test substance 30 mg/kg oral, 30 min after pyrazinamide 400 mg/kg, urine collected 2 to 3 hours after administration, read-out: Uricosuric action (control = 100)
Experimental: Uricosuric Action in Rat Pyrazinamide Model
Pyrazinamide suspended in a 0.5% methyl cellulose solution (0.5% MC) was orally administered to 7- and 8-week-old male Wistar/ST rats (4 rats per group) fasted for about 16 hours in a dose of 400 mg/kg. After 30 minutes, a test substance suspended in 0.5% MC was orally administered in a dose of 30 mg/kg, and urine was collected for 1 hour in a range from 2 to 3 hours after administration. At the beginning of collection of urine and after completion of collection of urine, rats were forced to urinate by pressing the abdomen of the rat. The concentration of uric acid and that of creatinine in urine were measured by a kit, and a ratio of the concentration of uric acid to that of creatinine was used as an indicator of a uricosuric action. The action of each test substance was expressed by percentage to control.

[2] = Concentration of unchanged compound in urine in rat; conditions: 3 mg/kg oral, fasted male Wistar/ST rats, urine collected for 4 hours after administration, HPLC
Experimental: Concentration of Unchanged Compound in Urine in Rat
A test substance suspended in 0.5% MC was orally administered to two male Wistar/ST rats fasted for about 16 hours in a dose of 3 mg/kg. Immediately after administration, urine was collected for 4 hours. After completion of collection of urine, urine remaining in the bladder was completely excreted by pressing the abdomen of the rat. The concentration of an unchanged compound in urine was measured by HPLC and expressed by a molar concentration (μM).

[3] = test system: male Wistar/ST rats (pyrazinamide model); experiment: Uricosuric action in rat pyrazinamide model; conditions: po, as above, but test substance 100 mg/kg

| Concentration of unchanged compound in urine [2] [µM] | Compound | response vs control in vivo at 30 mg/kg [1] [%] | response vs control in vivo at 100 mg/kg [3] [%] |
| --- | --- | --- | --- |
| 119 | C#Cc1cc(C(=O)N2CS(=O)(=O)c3ccccc32)cc(C#N)c1O [Example 14, 3-(3-cyano-5-ethynyl-4-hydroxybenzoyl)-1,1-dioxo-2,3-dihydro-1,3-benzothiazole] | 164 |  |
| 125 | N#Cc1cc(C(=O)N2CS(=O)(=O)c3ccccc32)cc(Cl)c1O [Example 7, 3-(3-chloro-5-cyano-4-hydroxybenzoyl)-1,1-dioxo-2,3-dihydro-1,3-benzothiazole] | 178 |  |
| 3.9 | N#Cc1cc(C(=O)N2CS(=O)(=O)c3ccccc32)cc(C2CC2)c1O [Example 13, 3-(3-cyano-5-cyclopropyl-4-hydroxybenzoyl)-1,1-dioxo-2,3-dihydro-1,3-benzothiazole] | 172 |  |
| 30.6 | CN(C)C(=O)c1cc(C(=O)N2CS(=O)(=O)c3ccccc32)cc(C(F)(F)F)c1O [Example 27, 3-(3-dimethylcarbamoyl-4-hydroxy-5-trifluoromethylbenzoyl)-1,1-dioxo-2,3-dihydro-1,3-benzothiazole] | 146 |  |
| 1.9 | CSc1cc(C(=O)N2CS(=O)(=O)c3ccccc32)cc(Cl)c1O [Example 21, 3-(3-chloro-4-hydroxy-5-methylsulfanylbenzoyl)-1,1-dioxo-2,3-dihydro-1,3-benzothiazole] | 120 |  |
| 1.5 | CC(C)Sc1cc(C(=O)N2CS(=O)(=O)c3ccccc32)cc(C#N)c1O [Example 35, 3-(3-cyano-4-hydroxy-5-isopropylsulfanylbenzoyl)-1,1-dioxo-2,3-dihydro-1,3-benzothiazole] | 140 |  |
| 0 | CCCN(CCC)S(=O)(=O)c1ccc(C(=O)O)cc1 [Probenecid, reference compound] | 111 | 171 |
| 51.8 | N#Cc1cc(C(=O)N2CS(=O)(=O)c3ccccc32)cc(C(F)(F)F)c1O [Example 4, 3-(3-cyano-4-hydroxy-5-trifluoromethylbenzoyl)-1,1-dioxo-2,3-dihydro-1,3-benzothiazole] | 201 |  |
| 15.8 | CCc1cc(C(=O)N2CS(=O)(=O)c3ccccc32)cc(C#N)c1O [Example 12, 3-(3-cyano-5-ethyl-4-hydroxybenzoyl)-1,1-dioxo-2,3-dihydro-1,3-benzothiazole] | 187 |  |
| 55.2 | O=C(c1cc(F)c(O)c(Cl)c1)N1CS(=O)(=O)c2ccccc21 [Example 19, 3-(3-chloro-5-fluoro-4-hydroxybenzoyl)-1,1-dioxo-2,3-dihydro-1,3-benzothiazole] | 129 |  |
| 9.8 | O=C(c1cc(Cl)c(O)c(Cl)c1)N1CS(=O)(=O)c2ccccc21 [Example 1, 3-(3,5-dichloro-4-hydroxybenzoyl)-1,1-dioxo-2,3-dihydro-1,3-benzothiazole] | 169 |  |
| 1.1 | N#Cc1cc(C(=O)N2CSc3ccccc32)cc(C(F)(F)F)c1O [Example 5, 3-(3-cyano-4-hydroxy-5-trifluoromethylbenzoyl)-2,3-dihydro-1,3-benzothiazole] | 136 |  |
| 1 | O=C(c1cc(Cl)c(O)c(C(F)(F)F)c1)N1CS(=O)(=O)c2ccccc21 [Example 18, 3-(3-chloro-4-hydroxy-5-trifluoromethylbenzoyl)-1,1-dioxo-2,3-dihydro-1,3-benzothiazole] | 202 |  |
| 16.4 | N#Cc1cc(C(=O)N2CS(=O)(=O)c3ccc(C(F)(F)F)cc32)cc(C(F)(F)F)c1O [Example 38, 3-(3-cyano-4-hydroxy-5-trifluoromethylbenzoyl)-1,1-dioxo-5-trifluoromethyl-2,3-dihydro-1,3-benzothiazole] | 180 |  |
| 0 | CCc1oc2ccccc2c1C(=O)c1cc(Br)c(O)c(Br)c1 [Benzbromarone, reference compound] | 114 |  |
| 23.5 | CCSc1cc(C(=O)N2CS(=O)(=O)c3ccccc32)cc(C#N)c1O [Example 34, 3-(3-cyano-5-ethylsulfanyl-4-hydroxybenzoyl)-1,1-dioxo-2,3-dihydro-1,3-benzothiazole] | 208 |  |
| 68.6 | CSc1cc(C(=O)N2CS(=O)(=O)c3ccccc32)cc(C#N)c1O [Example 15, 3-(3-cyano-4-hydroxy-5-methylsulfanylbenzoyl)-1,1-dioxo-2,3-dihydro-1,3-benzothiazole] | 204 |  |
